Measurements taken from patent publication US4501748A, “1,4-Dihydropyridine derivatives” (Kyowa Hakko Kogyo Co., Ltd., priority 1983, dated 1985).
Counter-ions that a name gives are not always drawn.

Tests used:
[1] = Acute toxicity, oral administration to mice (survival rate 72 hours after administration); format: in vivo, mice (ddY type; conditions: mouse, in vivo, mice ddY male
Method: (§1) Drugs were compulsorily orally administered to mice (ddY type, body weight of 20 to 24 g, male) and the survival rate 72 hours after the administration was studied. A suspension of each of the drugs in water having added a small quantity of Tween 80 thereto was orally given at the dose of 0.1 ml/10 g mouse body weight, using a gastric tube.

[2] = system: Spontaneously hypertensive rat (SHR); experiment: Hypotensive effect: intravenous administration to SHR (no anesthesia); format: in vivo, Okamoto strain, male); conditions: 5 animals
Method: (1.) Intravenous Administration to SHR (no anesthesia)
Spontaneously hypertensive rat (SHR) (Okamoto strain, aging 20 to 30 weeks, male) were anesthetized with sodium thiopental (50 mg/kg, ip). A cannula for measuring blood pressure was inserted into the descending aorta from the right femoral artery and a cannula for intravenous administration was inserted into the left carotid vein, and these cannulas were fixed on the […], respectively. Change in blood pressure by intravenous administration of each of drugs were measured next day without any anesthesia. As the drugs, a solution of each of the drugs in polyethylene glycol 400 was intravenously administered at the dose of 0.1 ml/100 g body weight of the rat.

[3] = system: Spontaneously hypertensive rat (SHR); experiment: Hypotensive effect: oral administration to SHR (no anesthesia), plethysmographic tail method; format: in vivo, Okamoto Strain, male)
Method: (2) Oral Administration to SHR (no anesthesia)
Change in systolic blood pressure when drugs were orally administered to spontaneously hypertensive rat (SHR) (Okamoto Strain, aging 15 to 26 weeks, male) was measured by the plethysmographic tail method (Ueda Seisakusho, USM-105R).
Drugs were compulsorily orally administered at the dose of 0.5 ml/100 g body weight of the rat in the form of a suspension in 0.3% carboxymethyl cellulose, using a gastric tube.

[4] = system: mice; experiment: Acute toxicity, oral administration to mice (survival rate 72 hours after administration); format: in vivo, mice (ddY type; conditions: mice ddY male, hydrochloride, 4320 min
Method: as §1

[5] = LD50 in the oral administration in male rats; conditions: rat, in vivo
[6] = Hypotensive effect (general statement); format: in vivo; conditions: among the (±)-α-form

SMILES	LD50 at 72 h [1] [mg/kg]	Maximum Decrease in Mean Blood Pressure ([2]; 1 μg/kg i.v.) [mmHg]	Maximum Decrease in Mean Blood Pressure ([2]; 10 μg/kg i.v.) [mmHg]	Maximum Decrease in Systolic Blood Pressure ([3]; 1 mg/kg p.o., 8 animals) [mmHg]	Acute Toxicity LD50 [4] [mg/kg]	LD50 [5] [mg/kg]	Maximum Decrease in Mean Blood Pressure ([2]; 10 μg/kg i.v., hydrochloride) [mmHg]	hypotensive effect [6]	Maximum Decrease in Mean Blood Pressure ([2]; 100 μg/kg i.v.) [mmHg]	Maximum Decrease in Systolic Blood Pressure ([3]; 3 mg/kg p.o., 4 animals) [mmHg]	Maximum Decrease in Systolic Blood Pressure ([3]; 10 mg/kg p.o., 4 animals) [mmHg]
COC(=O)C1=C(C)NC(C)=C(C(=O)OC2CCCN(Cc3ccccc3)C2)C1c1cccc([N+](=O)[O-])c1 (racemic) [(±)-α-form, (±)-2,6-dimethyl-4-(3-nitrophenyl)-1,4-dihydropyridine-3,5-dicarboxylicacid-3-(1-benzyl-3-piperidyl)ester-5-methyl ester]	218	23.1 ± 6.4	45.6 ± 6.5	35.6 ± 6.3	–	–	–	–	–	–	–
COC(=O)C1=C(C)NC(C)=C(C(=O)OC2CCCN(Cc3ccccc3)C2)C1c1cccc([N+](=O)[O-])c1 (single isomer, unassigned) [(+)-α-form, (+)-α-2,6-dimethyl-4-(3-nitrophenyl)-1,4-dihydropyridine-3,5-dicarboxylic acid-3-(1-benzyl-3-piperidyl)ester-5-methyl ester hydrochloride]	–	42.2 ± 11.5	–	56.3 ± 13.0	95	95	67.4 ± 4.7	excellent hypotensive effect	–	–	–
COC(=O)C1=C(C)NC(C)=C(C(=O)OC2CCCN(Cc3ccccc3)C2)C1c1cccc([N+](=O)[O-])c1 (single isomer, unassigned) [(-)-α-form, (-)-α-2,6-dimethyl-4-(3-nitrophenyl)-1,4-dihydropyridine-3,5-dicarboxylic acid-3-(1-benzyl-3-piperidyl)ester-5-methyl ester hydrochloride]	–	–	–	–	918	–	23.4 ± 7.9	–	27.3 ± 6.1	22.5 ± 9.6	30.0 ± 5.3
